In PubChem BioAssay (NCI):
“And” between values parts separate entries of the source, which are not always exact repeats. Identical values can stand only once.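 Briefly, cells in 96-well plates were exposed to five compound concentrations for 48 h, and endpoints were estimated by linear interpolation. GI50 = concentration required for 50% inhibition of growth. TGI is the concentration that stops growth completely.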

Legend:
Assay in all cases: growth of human tumour cells (NCI), 48 h
HOP-92 NSCLC = system: HOP-92 NSCLC
UACC-257 melanoma = system: UACC-257 melanoma
MALME-3M melanoma = system: MALME-3M melanoma
NCI-H460 lung = system: NCI-H460 lung
SF-539 CNS = system: SF-539 CNS
ACHN renal = system: ACHN renal
HT29 colon = system: HT29 colon
CCRF-CEM leukemia = system: CCRF-CEM leukemia
NCI-H23 lung = system: NCI-H23 lung
NCI-H226 lung = system: NCI-H226 lung

| SMILES | GI50 (HOP-92 NSCLC) | TGI (HOP-92 NSCLC) | GI50 (UACC-257 melanoma) | TGI (UACC-257 melanoma) | GI50 (MALME-3M melanoma) | TGI (MALME-3M melanoma) | GI50 (NCI-H460 lung) | TGI (NCI-H460 lung) | GI50 (SF-539 CNS) | TGI (SF-539 CNS) | GI50 (ACHN renal) | TGI (ACHN renal) | GI50 (HT29 colon) | TGI (HT29 colon) | GI50 (CCRF-CEM leukemia) | TGI (CCRF-CEM leukemia) | GI50 (NCI-H23 lung) | TGI (NCI-H23 lung) | GI50 (NCI-H226 lung) | TGI (NCI-H226 lung) |
| --- | --- | --- | --- | --- | --- | --- | --- | --- | --- | --- | --- | --- | --- | --- | --- | --- | --- | --- | --- | --- |
| O=C(c1cccs1)C1NO[N+]([O-])=C1c1cccs1 (stereo not given) | 1.65 µM | 3.59 µM | 5.16 µM | 15.3 µM | 0.517 µM | 1.19 µM | 5.37 µM | 13.1 µM | 1.86 µM | 3.39 µM | 1.85 µM | 3.56 µM | 1.94 µM | 3.65 µM | 1.23 µM | 3.54 µM | 2.94 µM | 9.42 µM | 9.9 µM | > 35.2 µM |
| CCOc1ccc(Nc2c3ccccc3nc3ccccc23)cc1 | 0.299 µM and 1.06 µM | 3.16 µM and 9.42 µM | 0.552 µM and 0.888 µM | 2.22 µM and 6.32 µM | 0.806 µM and 0.468 µM | 4.1 µM and 3.45 µM | 0.407 µM and 0.347 µM | 3.03 µM and 1.82 µM | 0.51 µM and 0.419 µM | 11.8 µM and 10.2 µM | 0.953 µM and 0.636 µM | 3.83 µM and 2.15 µM | 0.307 µM and 0.264 µM | 1.26 µM and 1.08 µM | 0.585 µM and 0.739 µM | > 31.7 µM and 3.26 µM | 0.495 µM and 0.422 µM | 4.51 µM and 3.3 µM | 1.33 µM and 1.29 µM | 3.83 µM and 4.06 µM |
| CC(C)[O-].CC(C)[O-].CN(CCN(C)Cc1cc(F)cc(F)c1[O-])Cc1cc(F)cc(F)c1[O-].[Ti+4] | 0.316 µM | 1.18 µM | 1.15 µM | 3.9 µM | 0.379 µM | 1.43 µM | 0.575 µM | 2.83 µM | 1.01 µM | 4.8 µM | 1 µM | 8.34 µM | 1.72 µM | 3.81 µM | 0.512 µM | > 35.1 µM | 0.706 µM | 2.72 µM | 2.14 µM | 10.5 µM |
| O=C1c2ccccc2-c2c1c1c(NCCCO)nc3ccccc3c1n2Cc1ccccc1 | 12.3 µM | 27.6 µM | 41.3 µM | > 100 µM | 19 µM | 38.2 µM | 17.5 µM | 38.1 µM | 18.5 µM | 36.7 µM | 21.4 µM | 59.4 µM | 17.1 µM | 30.8 µM | 17.6 µM | 45.9 µM | 14.4 µM | 34.9 µM | 41.3 µM | > 100 µM |
| CC(C)Oc1ccc(C(=O)Cn2ccnc2)cc1-n1c(CN2CCN(C(=O)COc3ccc(Cl)cc3)CC2)nc2ccccc2c1=O | 13.1 µM | 35 µM | 13.8 µM | 39.6 µM | 12.5 µM | 30.3 µM | 16.8 µM | 33.7 µM | 14.4 µM | 30.4 µM | 1.61 µM | 3.14 µM | 14.8 µM | 44.9 µM | 11 µM | > 100 µM | 16.2 µM | 37.7 µM | 14.5 µM | 38.9 µM |
| CC(=O)n1c(=O)c2cc3c(=O)n(-c4cccc(C#N)c4)c(=O)c3cc2c1=O | – | > 100 µM | – | > 100 µM | – | > 100 µM | – | > 100 µM | – | > 100 µM | – | > 100 µM | – | > 100 µM | – | > 100 µM | – | > 100 µM | – | > 100 µM |
| Cc1ccc(-n2nc(C(C)(C)C)cc2NC(=O)NCc2cc(F)ccc2Oc2ccc3c(cnn3CCO)c2)cc1 | 8.06 µM and 5.1 µM | > 10 µM and 95.2 µM | 1.19 µM and 2.32 µM | > 10 µM and 10.4 µM | 0.396 µM and 0.305 µM | > 10 µM and 1.73 µM | > 10 µM and 4.85 µM | > 59.7 µM | > 10 µM and 6.83 µM | > 93.1 µM | 4.3 µM and 2.79 µM | > 56.2 µM | 0.718 µM and 2.44 µM | > 10 µM and 26.6 µM | > 10 µM and 3.38 µM | > 69.7 µM | 5.6 µM and 6.17 µM | > 85.3 µM | 0.562 µM and 2.75 µM | > 100 µM |
| O=C(Cl)C1=C(c2ccccc2)C1c1ccccc1 (stereo not given) | – | > 100 µM | – | > 100 µM | – | > 100 µM | – | > 100 µM | – | > 100 µM | – | > 100 µM | – | > 100 µM | – | > 100 µM | – | > 100 µM | – | > 100 µM |
| Cc1cccc(C)c1N1C(=O)C(=O)C(c2nc3ccccc3s2)C(=Nc2cccc3c(=O)[nH][nH]c(=O)c23)C1=O (stereo not given) | – | > 100 µM | – | > 100 µM | – | > 100 µM | – | > 100 µM | – | > 100 µM | – | > 100 µM | – | > 100 µM | – | > 100 µM | – | > 100 µM | – | > 100 µM |
